The text below walks through data of PubChem BioAssay (NCI).

What all share (test): DTP human tumour cell line panel, 48 h
For assay [1], the system named is A549 NSCLC.
The test system of assay [2] is CAKI-1 renal.
Assay [3] deals with HCT-15 colon.
The test system of assay [4] is HL-60(TB) leukemia.
The test system of assay [5] is HS 578T breast.
Assay [6] relates to K-562 leukemia.
Assay [7] concerns KM12 colon.
Assay [8] relates to MOLT-4 leukemia.
In assay [9] the test system is NCI-H226 lung.
Assay [10] has as its system NCI-H23 lung.
The subject of assay [11] is NCI-H460 lung.
For assay [12], the system named is NCI-H522 lung.
Assay [13] deals with OVCAR-5 ovarian.
Assay [14] concerns U251 CNS.
Assay [15] concerns CCRF-CEM leukemia.

Several values for one entry are separate records, joined by “and”; a condition that tells them apart may be missing. Identical values can stand only once.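 96-well plates; 48 h exposure; 5 concentrations. Endpoints by linear interpolation between flanking doses. Not reached: highest tested concentration assigned. Abbreviation: GI50, concentration required for 50% inhibition of growth. TGI marks complete inhibition of growth.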

In general, TGI refers to the concentration at which net growth stops. Low readings indicate greater sensitivity of the cells, high ones lower sensitivity of the cells. The GI50 is the concentration giving 50% growth inhibition.

Take `COc1ccccc1/[N+]([O-])=C/c1ccccc1OC(=S)S`: the TGI was over 100 µM in assay [1]; over 100 µM in assay [2]; over 100 µM in assay [3]; 74.5 µM in assay [4]; over 100 µM in assay [5]; over 100 µM in assay [6]. The TGI in [7] is over 100 µM; in [8], over 100 µM; in [9], over 100 µM; in assay [10], over 100 µM; in assay [11], over 100 µM; in assay [12] it was 71.4 µM. For the same compound, the TGI in [13] and in [14] was over 100 µM throughout.
Regarding `N#Cc1cccc(Nc2ccccc2SSc2ccccc2Nc2cccc(C#N)c2)c1`, the TGI in assay [1] was over 21.5 µM; in [15], 14.9 µM; in [3], over 21.5 µM; in assay [4] it was 14.8 µM; in [5] it was over 14.6 µM; in assay [6], over 21.5 µM. The TGI is 16.2 µM in assay [7]; 21.4 µM in [8]; 18.3 µM in assay [9]; over 21.5 µM in assay [10]; 12.8 µM in [11]; 12.2 µM in [12]. Also, the TGI in assay [13] was over 21.5 µM; in [14] it was 12 µM.
With `CC(=O)N1c2ccccc2C2=NN=C(N(C)C)SC21` (stereo unspecified), the TGI in [1] came to 11.8 µM; in [15] it was 5.31 µM; in assay [3] it was 15.6 µM; in [4], 5.07 µM; in assay [5] it was 52.4 µM; in [6], 18.8 µM. In addition, the TGI in assay [7] was 11.2 µM; in assay [8], over 100 µM; in [9], 19.5 µM; in assay [10] it was 19.3 µM; in assay [11] it was 13.3 µM; in [12] it was 6.68 µM. Also, the results for the TGI in assay [13] and in assay [14] were 18.1 µM and 10.8 µM, respectively.
Turning to `CNc1nc2c(C)ccc3nc(N(C)C)nc-3c2n1C`, the TGI in assay [1], in assay [2], in assay [15], in [3], in assay [5] and in assay [6] was over 10 µM in each case. Besides, the TGI in assay [7], in assay [8], in assay [9], in assay [10], in [11] and in [12] was over 10 µM in each case. The TGI in assay [13] and in assay [14] was over 10 µM throughout.
As to `CCCCC1=C(C(=O)N2CCOCC2)C2(OCCO2)C1Cl` (stereo unspecified), the TGI in assay [1] is 48.9 µM; in assay [2], 86.5 µM; in assay [15], over 100 µM; in assay [3] it was over 100 µM; in assay [4] it was over 100 µM; in assay [5], over 100 µM. Moreover, the TGI in [7] was 41.5 µM; in assay [8], over 100 µM; in [9], over 100 µM; in [10] it was over 100 µM; in assay [12] it was 99.3 µM; in [13], 45.5 µM. This compound also displayed a TGI in [14] of over 100 µM.
On to `O=C(/C=C/c1ccsc1)c1cccs1`, for which the TGI was over 100 µM in [1]; over 100 µM in [2]; 54.6 µM in [15]; 37 µM in assay [3]; over 100 µM in assay [5]; over 100 µM in assay [6]. Besides, the TGI in [7] was 35.1 µM; in assay [8] it was over 10 µM; in [9], over 100 µM; in assay [10], 68 µM; in assay [11] it was over 100 µM; in assay [12] it was 39.4 µM. Moreover, the TGI was over 100 µM in assay [13] and 44.2 µM in assay [14].
Consider `Cc1ccc(/C(O)=C/c2nc3ccccc3nc2NC23CC4CC(CC(C4)C2)C3)cc1`, for which the TGI in [1], in assay [2], in assay [3], in [4], in assay [5] and in assay [6] was over 10 µM each time. Also, the TGI in assay [7], in assay [8], in [10], in assay [12], in [13] and in [14] was over 10 µM in each case.
Regarding `CCOC(=O)c1nc2cc(F)c(F)cc2nc1NCc1cc(OC)c(OC)c(OC)c1`, the TGI in [1], in assay [2], in assay [15], in assay [3], in assay [4] and in assay [5] was over 100 µM in each case. For the same compound, the TGI in assay [7], in assay [8], in assay [10], in assay [11], in assay [12] and in [13] was over 100 µM each time. Moreover, in [14], the TGI was over 100 µM.
Take `CN(C(=O)C12C3C4C1C1C2C3C41C(=O)O)C(C)(C)C` (stereo unspecified): the TGI in [1], in assay [2], in assay [15], in [3], in [4] and in assay [5] was over 100 µM throughout. Besides, the TGI in assay [6], in [7], in [8], in [10], in assay [11] and in assay [12] was over 100 µM each time. The TGI in assay [13] and in assay [14] was over 100 µM in each case.
With `O=c1ccc(-c2ccc(-n3ccnc3)cc2)nn1CCO`, the TGI in assay [1], in assay [2], in assay [15], in [3], in assay [4] and in assay [5] was over 100 µM in each case. The TGI in assay [7], in assay [8], in assay [10], in [11], in [12] and in assay [13] was over 100 µM throughout. This compound also yielded a TGI in assay [14] of over 100 µM.
As to `Nc1ccc2c(c1)N(C(=O)CCCC(=O)N1CC(CCl)c3ccc(N)cc31)CC2CCl` (stereo unspecified), the TGI in assay [1] is over 50 µM; in assay [15] it was over 20.1 µM; in assay [3] it was over 14.6 µM; in assay [4], 0.907 µM; in assay [5], 1.94 µM; in assay [6] it was over 15.8 µM. For the same compound, the TGI in assay [7] was 3.99 µM; in [8] it was over 50 µM; in [9], over 50 µM; in assay [10], 4.16 µM; in [11] it was over 50 µM; in [12], 0.286 µM. Besides, the values for the TGI in assay [13] and in [14] were over 41.3 µM and over 26.2 µM, respectively.
Consider `CCOC(=O)C(C)c1nc2cc(F)c(N3CCOCC3)cc2[nH]c1=O` (stereo unspecified), for which the TGI in [1], in assay [2], in assay [15], in [3], in [5] and in [6] was over 100 µM in each case. For the same compound, the TGI in assay [7], in [8], in assay [9], in [10], in [11] and in assay [12] was over 100 µM throughout. In addition, the TGI in [13] and in assay [14] was over 100 µM each time.
With `CCOC(=O)Nn1cnnc1Cc1ccccc1`, the TGI in assay [1] was over 100 µM; in assay [2], over 100 µM; in assay [15] it was over 100 µM; in assay [3], over 100 µM; in [5], 81.4 µM; in assay [6] it was over 100 µM. Moreover, the TGI in assay [7], in [8], in assay [9], in assay [10], in assay [11] and in [12] was over 100 µM each time. In addition, the TGI in [13] and in assay [14] was over 100 µM in each case.
Take `COc1ccc(/C=C/C(=O)c2cccc(C(=O)/C=C/c3ccc(OC)c(OC)c3)n2)cc1OC`: the TGI was over 100 µM in assay [1]; over 100 µM in assay [2]; 6.29 µM in assay [15]; 55 µM in assay [3]; 92.2 µM in assay [4]; over 95.5 µM in [5]. Further, the TGI in assay [6] was over 100 µM; in assay [7], over 100 µM; in [9], over 100 µM; in assay [10] it was over 100 µM; in assay [11] it was over 100 µM; in [12] it was 23.1 µM. For the same compound, the TGI in assay [13] is over 91.2 µM; in [14], over 55.7 µM.
For `COc1cc2c(cc1C)NC(=O)/C2=C\c1cccnc1`, the TGI in [1] is 71.7 µM; in assay [2], 36.2 µM; in assay [15], over 100 µM; in assay [3], over 100 µM; in [4], over 100 µM; in assay [5], 96.6 µM. The TGI in assay [6] is over 100 µM; in assay [7], 35.6 µM; in assay [8] it was 60.1 µM; in [10], 23.3 µM; in [11], 85.4 µM; in assay [12], 70.2 µM. The TGI in [13] was 31.8 µM; in assay [14], over 100 µM.
`O=S(=O)(O)c1cccc2ccc(O)c(N=Nc3ccc(S(=O)(=O)c4ccc(N=Nc5c(O)ccc6cccc(S(=O)(=O)O)c56)cc4)cc3)c12`: the TGI in assay [1], in assay [2], in assay [15], in assay [3], in assay [4] and in assay [5] was over 100 µM each time. The TGI in assay [6], in assay [7], in assay [8], in assay [9], in assay [10] and in assay [12] was over 100 µM each time. For the same compound, the TGI in assay [13] and in assay [14] was over 100 µM throughout.
Consider `O=c1oc2ccccc2cc1-c1nc2ccccc2c(=O)[nH]1`, for which the TGI in assay [1], in assay [2], in assay [15], in assay [3], in assay [4] and in assay [5] was over 100 µM each time. The TGI in assay [6], in assay [7], in assay [8], in assay [9], in assay [11] and in assay [12] was over 100 µM each time. Besides, the TGI in [13] and in assay [14] was over 100 µM each time.
Regarding `CC[C@@]1(O)C(=O)OCc2c1cc1n(c2=O)Cc2c-1nc1ccccc1c2C=Nc1ccc(N[C@@H]2c3cc4c(cc3[C@@H](c3cc(OC)c(O)c(OC)c3)[C@H]3C(=O)OC[C@@H]32)OCO4)cc1`, the TGI in assay [1] was 15.6 µM and 1.84 µM; in assay [15], over 100 µM; in assay [4], over 100 µM; in assay [5], over 100 µM; in assay [6], 19.3 µM and 10.3 µM; in assay [7] it was > 44.3 µM and 6.24 µM. Besides, the TGI was over 100 µM in assay [8]; 2.71 µM and 0.308 µM in assay [9]; 0.133 µM in [10]; over 100 µM in assay [12]; over 48.8 µM in [14]. The GI50 in [3] is 1080 nM and 236 nM; in assay [7], 1690 nM and 269 nM; in [9], 48.3 nM and 17.9 nM; in [13] it was 545 nM and 141 nM.
In the case of `COc1ccc2c(c1OC)C(Br)CCC(Br)(Br)C2=O` (stereo unspecified), the TGI in assay [1] is 29 µM; in assay [2], 3.24 µM; in assay [3], 25.6 µM; in [4], 23.7 µM; in [5], 44.2 µM; in [6], 11.6 µM. Besides, the TGI was determined as 32.2 µM in [7]; 8.32 µM in assay [8]; 30.1 µM in assay [9]; 22.8 µM in assay [10]; 31 µM in assay [11]; 3.38 µM in assay [12]. Besides, the TGI in [13] came to 31.8 µM; in [14], 30.4 µM.
With `Clc1ccccc1-c1nn2c(CCCCCCCCc3nnc4sc(-c5ccccc5Cl)nn34)nnc2s1`, the TGI in [1], in [2], in [15], in assay [3], in assay [5] and in assay [6] was over 100 µM throughout. Further, the TGI in assay [7], in [8], in [9], in assay [10], in assay [11] and in assay [12] was over 100 µM throughout. The TGI in assay [13] and in assay [14] was over 100 µM throughout.
